Experimental data reported in US20020094958A1, “Materials for lysosome modulation and methods of use thereof” (priority 2000, published 2002).
Values belong to the compound of their own block, whether it stands above or below them. Where a SMILES comes first, the peptide text is derived from it. The star is where a group is joined. Cbz = O=C(OCc1ccccc1)*; CHN2 = [N-]=[N+]=C*

Key:
[1] = test system: lysosomal enzyme levels; assay: Upmodulation of lysosomal enzyme levels in hippocampal slice cultures (Table 1); format: cell-based, rat; settings: compounds individually applied to hippocampal slice cultures
Source text: Another aspect of the invention is the provision of compounds to increase cellular content (upmodulation) of lysosomal enzymes. As used herein “upmodulation” is an increase in the cellular content of lysosomal enzymes or in the content of lysosomes. Some inventive lysosomal modulating compounds are comprised by the previously described formulas (1) M-aan—CH═N═N, (2) M-aan—CH2—O—CO—[2-R-4-R-6-R-Phenyl], (3) M-aan—NH—CH2—CH N—NH—CO—NH2 and (4) M—N═N—CO—CH2-aan—O—R. Examples of compounds include, formula (1) benzyloxycarbonyl-Phe-Ala-diazomethylketone and benzyloxycarbonyl-Phe-Phe-diazomethylketone; formula (2) is benzyloxycarbonyl-Phe-Lys-2,4,6-trimethylbenzoyloxymethylketone; formula (3) is H-Gly-Phe-Gly-aldehyde semicarbazone; formula (4) is diazoacetyl-DL-2-aminohexanoic acid-methyl ester. When these compounds were individually applied to hippocampal slice cultures, each facilitated the upmodulation of lysosomal enzyme levels (Table 1). Each of the compounds is available from BACHEM Biosciences Inc. of King of Prussia, Pa. Presently, PADK is the preferred compound for modulation of lysosomal activity.
Lysosomal modulating compounds were identified that unexpectedly stimulate lysosomal activity and/or cellular feedback processes for the upregulation of lysosomal hydrolase levels. […] Thus the inventive lysosomal modulation promotes efficient tau turnover/processing and thereby reduces the ability of abnormally phosphorylated tau to drive non-pathogenic species off of microtubules and into the aggregated state. The non-pathogenic tau molecules would then be more readily available to stabilize microtubules and their transport mechanisms that are important for neuronal functions.

[2] = test system: cathepsin D; assay: Cathepsin D in brain tissue of rats given PADK in drinking water; format: in vivo, rat; settings: adult male rats, approximately 3 to 4 mg/kg/day, seven days, vs untreated group
Method: A further aspect of the invention is a method of modulating lysosomal function in a subject comprising administering to the subject a therapeutically effective amount of at least one inventive lysosome modulating compound or a physiologically acceptable salt thereof. As discussed in more detail later, the lysosome modulating compound benzyloxycarbonyl-Phe-Ala-diazomethylketone (PADK) was added to the drinking water of a first group of 5 adult male rats in an amount corresponding to 3 to 4 mg PADK/kg rat weight/day. […] After seven days, hippocampal and neocortical tissue was isolated from the first and the second groups. The concentration of the lysosomal enzyme cathepsin D in tissue samples was assessed by immunoblot for each of the groups.
The lysosomal modulator benzyloxycarbonyl-Phe-Ala-diazomethylketone (PADK) was added to the drinking water of a first group of 5 adult male rats in an amount corresponding to approximately 3 to 4 mg PADK/ kg rat weight/day. […] After seven days, hippocampal and neocortical tissue was isolated from the first and the second groups. The concentration of cathepsin D in tissue samples was assessed by immunoblot for each of the groups.

[3] = test system: hippocampal slice cultures; assay: Synaptic marker decline and recovery after chloroquine-induced lysosomal dysfunction in hippocampal slice cultures; format: cell-based, rat; settings: for recovery of the postsynaptic marker GluR1 concentration / recovery of the presynaptic marker synaptophysin concentration: 2-day recovery after 6-day 60 μM chloroquine, vs chloroquine baseline
Method: The method comprises treatment of a neural tissue culture with a lysosomal disruptor (e.g., chloroquine) to initiate lysosome dysfunction in the culture. The culture is treated with a lysosomal disruptor in order to reproduce features characteristic of neurodegeneration, especially those found in Alzheimer's disease (FIG. 7). Preferably, chloroquine is utilized for the lysosomal disruptor due to its broad targeting of pH-dependent enzymes by disrupting the proton gradient of lysosomes. Chloroquine is added to the culture for an extended period of time (the addition time period) to cause gradual cellular changes.
After a predetermined time, the lysosomal disrupter is removed from the culture and synaptic marker concentrations are determined. Subsequently, small amounts of compounds are administered to the neural tissue to modulate lysosomal enzymes. After such treatment, concentrations of synaptic markers in the neural tissue are determined, and the treated and untreated synaptic marker concentrations are compared to determine synaptic recovery (see FIG. 2). Thus by monitoring decline (during disruptor addition) and subsequent increase (during compound addition) of synaptic markers, synaptic degeneration and recovery can be assessed, and the efficacy of the added compounds can be measured.
In order to induce lysosomal dysfunction, 60 μM chloroquine in media was added separately to groups of hippocampal slice cultures. The chloroquine-containing media was changed every two days. Over a 6-day period, separate groups of slices were harvested and synaptic pathology assessed by determining the content of the postsynaptic marker GluR1. […] In a first set of slices the chloroquine was removed from the feeding media after the 6-day addition period and synaptic recovery was assessed after one and two days by measuring GluR1 concentration. […] Although the rate of decline slowed between the first and second day, there was no evidence of synaptic recovery.
In a second set of slices, synaptic recovery was assessed after removal of chloroquine-containing media and a single addition of 10 μM of the lysosomal modulator benzyloxycarbonyl-Phe-Ala-diazomethyiketone (PADK) in media was applied to cultures. As shown by the closed triangles, addition of PADK functioned to increase the GluR1 marker concentration, indicating recovery from synaptic degeneration.
Lysosomal dysfunction was induced by adding 60 μM chloroquine in media to separate groups of hippocampal slice cultures. The chloroquine-containing media was changed every two days for a total of six days. After the 6-day addition period, the chloroquine was removed from the feeding media of individual sets of cultures and presynaptic marker (synaptophysin) and postsynaptic marker (GluR1) concentrations assessed to provide a baseline indicated by the horizontal dotted lines in FIGS. 3A and 3B. 10 μM PADK, 10 μM Ampakine (trademark of Cortex Pharmaceuticals; Irvine, Calif.), and 10 μM memantine (derivatives of which are a trademark of Merz Pharmaceuticals; Germany) were added separately to separate chloroquine-treated cultures to assess their effects on synaptic recovery. After a 2-day recovery period, the separate groups of cultures were harvested and concentrations of presynaptic (synaptophysin) and postsynaptic (GluR1) markers were measured and compared to the reduced levels resulting from the 6-day chloroquine treatment. An increase from the baseline indicates recovery while no difference or further reduction of marker concentrations from the baseline indicates no recovery of synaptic maintenance.

[4] = test system: hippocampal slice cultures; assay: Horse-radish peroxidase dendritic transport scoring in hippocampal slice cultures; format: cell-based, rat
Method: Lysosomal dysfunction was produced in hippocampal slice cultures with chloroquine as in Example 2. Separate groups of slices were assessed for transport capability by applying horse-radish peroxidase to neurons and scoring its transport from cell bodies along dendrites by two independent observers. […] By monitoring intracellular tau deposition, microtubule stabilization marker (acetylated tubulin), and transport capability, it appears that changes in all of these related parameters contribute to the link between lysosomal modulation and synapse maintenance (FIG. 7).

[5] = test system: hippocampal slice cultures; assay: Immunoblot of tau species and lysosomal enzymes after chloroquine-mediated lysosomal dysfunction in hippocampal slice cultures; format: cell-based, rat
Source text: Lysosomal dysfunction was produced in hippocampal slice cultures with chloroquine as in Example 2.

[6] = test system: hippocampal slice cultures; assay: Continuous PADK application to hippocampal slice cultures over a 20-day period; format: cell-based, rat
Source text: One aspect of the invention is the use of compounds to modulate lysosomal activity. The modulation of lysosomal activity may be, but is not necessarily, accompanied by an increase in cellular content of lysosomes or lysosomal enzymes. Some inventive lysosomal modulating compounds comprise the previously described formulas (1) M-aan—CH═N═N, (2) M-aan—CH2—O—CO—[2-R-4-R-6-R-Phenyl], (3) M-aan—NH—CH2—CH═N—NH—CO—NH2, (4) M-N ═N—CO—CH2—aan—O—R, and combinations thereof. An example of formula (1) is benzyloxycarbonyl-Phe-Ala-diazomethylketone (PADK). As discussed in more detail later, PADK was applied to hippocampal slice cultures at a continuous concentration of 10 μM over a 20-day period. Fresh media and PADK compound were applied every two days.
Benzyloxycarbonyl-Phe-Ala-diazomethylketone (PADK) was applied to hippocampal slice cultures at a continuous concentration of 10 μM over a 20-day period. Fresh media and PADK compound were applied every two days. […] Thus the inventive lysosomal modulation promotes efficient tau turnover/processing and thereby reduces the ability of abnormally phosphorylated tau to drive non-pathogenic species off of microtubules and into the aggregated state. The non-pathogenic tau molecules would then be more readily available to stabilize microtubules and their transport mechanisms that are important for neuronal functions. Such an inverse correlation between the two forms of tau was also evident in the hippocampus of aged mice, where the change vs. age relationships determined for hyperphosphorylated and non-phosphorylated tau were of equal but opposite slopes. Thus, lysosomal modulators may intervene in the progression of certain types of neuronal atrophy, as well as in the cellular processes that contribute to synaptic loss and the severity of Alzheimer-type dementia.

[7] = PADK for two days following 6-day chloroquine period
[8] = 2 days PADK following 6-day chloroquine treatment
[9] = 10 μM continuous, 20-day period
[10] = 6 days chloroquine then 2 days media alone, vs untreated control

SMILES: C[C@H](NC(=O)[C@H](Cc1ccccc1)NC(=O)OCc1ccccc1)C(=O)C=[N+]=[N-] [(1), benzyloxycarbonyl-Phe-Ala-diazomethylketone]
lysosomal enzyme (cathepsin D) concentration in hippocampal and neocortical tissue [2]: significant increases | upmodulated cathepsin types [1]: B, D, S | recovery from synaptic degeneration (GluR1) ([3]; Example 2, single 10 μM addition after 6-day chloroquine, one day): significant recovery | recovery of GluR1 level ([3]; Example 2, single 10 μM addition after 6-day chloroquine, two days): 71% | recovery of the postsynaptic marker GluR1 concentration ([3]; Example 3, 10 μM): 70% | recovery of the presynaptic marker synaptophysin concentration ([3]; Example 3, 10 μM): ~35% | restoration of transport capability [4, 7]: significant restoration | transport failure [4, 7]: did not exhibit transport failure | 55-69 kDa tau species [5, 8]: reduction | cathepsin D [5, 8]: robust upmodulation | levels of lysosomal enzymes cathepsin B (CB), cathepsin D (CD), cathepsin S (CS) ([5]; FIG. 5 immunoblots): enhanced levels | control levels of tau isoforms ([5]; PADK addition alone (no chloroquine)): without altering | cathepsin D levels [6, 9]: stably enhanced | non-pathogenic tau isoforms [6, 9]: gradual increase | pathogenic hyperphosphorylated tau species concentration [6, 9]: gradually reduced | synaptic marker (GluR1) [6, 9]: without any reduction | concentration of the lysosomal enzyme cathepsin D ([6]; 10 μM, after 5 days of treatment): not significantly altered

SMILES: CC12CC3CC(C)(C1)CC(N)(C3)C2 [memantine, reference compound]
recovery of the postsynaptic marker GluR1 concentration ([3]; Example 3, 10 μM): No statistically significant recovery | recovery of the presynaptic marker synaptophysin concentration ([3]; Example 3, 10 μM): No statistically significant recovery | GluR1 level change vs baseline ([3]; Example 3, 10 μM, 2-day recovery period, FIG. 3A): small decrease

Continued, in another order:

upmodulated cathepsin types [1]: B, D
SMILES: [N-]=[N+]=CC(=O)[C@H](Cc1ccccc1)NC(=O)[C@H](Cc1ccccc1)NC(=O)OCc1ccccc1 [(2), benzyloxycarbonyl-Phe-Phe-diazomethylketone] (Cbz-Phe-Phe-CHN2)

upmodulated cathepsin types [1]: B, D
SMILES: NCC(=O)NC(Cc1ccccc1)C(=O)NCC=NNC(N)=O (stereo not drawn) [(4), H-Gly-Phe-Gly-aldehyde semicarbazone]

cathepsin D (CD) [5, 10]: small compensatory increase | potentially pathogenic tau species of 55-69 kDa [5, 10]: enhanced levels
SMILES: CCN(CC)CCCC(C)Nc1ccnc2cc(Cl)ccc12 (centres unmarked) [chloroquine, reference compound]
GluR1 concentration during disruptor exposure ([3]; 60 μM, 6-day exposure period): decreased | transport capacity ([4]; 6-day chloroquine followed by 2 days media alone, vs untreated slices): adversely affected
